In US12685312B2, “Sulfonamide apyrase inhibitors” (Texas Crop Science, Inc., priority 2022, dated 2026):

Each molecule was assayed on apyrase (assay: Screen for apyrase inhibitors (Method 1, in vitro phosphate-release absorbance assay)). Conditions: inhibitor conc at 1 mM stock, 1 hr room temperature, absorbance 630 nm; rounded average of two assay results.
Assay type: biochemical
In short: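 Phosphate-release colorimetric assay (Windsor method) in 60 mM Hepes, 3 mM MgCl2, 3 mM CaCl2, 3 mM ATP, pH 6.5, with compound or DMSO control added. Released phosphate developed with ammonium molybdate and ascorbic acid/TCA, then stopped with citrate/acetic acid.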

| % Inhibition of Apyrase | SMILES |
| --- | --- |
| 60% | O=C(Nc1ccc2c(c1)OCO2)c1cccc(S(=O)(=O)N2CCc3ccccc32)c1 [I-451, N-(benzo[d][1,3]dioxol-5-yl)-3-(indolin-1-ylsulfonyl)benzamide] |
| 55% | N#Cc1cccc(NC(=O)c2cccc(S(=O)(=O)Nc3cc(C(F)(F)F)ccc3Cl)c2)c1 [I-532, 3-(N-(2-chloro-5-(trifluoromethyl)phenyl)sulfamoyl)-N-(3-cyanophenyl)benzamide] |
| 48% | COc1ccc(S(=O)(=O)N2CCc3ccccc32)cc1C(=O)Nc1ccc2c(c1)OCCO2 [I-577, N-(2,3-dihydrobenzo[b][1,4]dioxin-6-yl)-5-(indolin-1-ylsulfonyl)-2-methoxybenzamide] |
| 14% | Cc1ccccc1NS(=O)(=O)c1cccc(C(=O)Nc2cccc([N+](=O)[O-])c2)c1 [I-40, N-(3-nitrophenyl)-3-(N-(o-tolyl)sulfamoyl)benzamide] |
| 48% | COc1ccc(C(=O)Nc2cccc(S(=O)(=O)Nc3ccc(Br)cc3)c2)cc1OC [I-333, N-(3-(N-(4-bromophenyl)sulfamoyl)phenyl)-3,4-dimethoxybenzamide] |
| 51% | COc1ccc2c(c1)CCCN2C(=O)c1cccc(S(=O)(=O)Nc2ccccc2F)c1 [I-561, N-(2-fluorophenyl)-3-(6-methoxy-1,2,3,4-tetrahydroquinoline-1-carbonyl)benzenesulfonamide] |
| 60% | Cc1nc2ccc(NC(=O)c3cccc(S(=O)(=O)Nc4ccc5c(c4)OCO5)c3)cc2s1 [I-261, 3-(N-(benzo[d][1,3]dioxol-5-yl)sulfamoyl)-N-(2-methylbenzo[d]thiazol-6-yl)benzamide] |
| 15% | CN(c1ccccc1)S(=O)(=O)c1cccc(NC(=O)c2nn(C)c(=O)c3ccccc23)c1 [I-763, 3-methyl-N-(3-(N-methyl-N-phenylsulfamoyl)phenyl)-4-oxo-3,4-dihydrophthalazine-1-carboxamide] |
| 48% | COc1ccc(S(=O)(=O)N2CCCCC2)cc1NC(=O)c1cccc(S(=O)(=O)Nc2ccccc2OC)c1 [I-578, N-(2-methoxy-5-(piperidin-1-ylsulfonyl)phenyl)-3-(N-(2-methoxyphenyl)sulfamoyl)benzamide] |
| 73% | COc1ccc(OC)c(NC(=O)c2cccc(S(=O)(=O)N3c4ccccc4CC3C)c2)c1 (centres unmarked) [I-429, N-(2,5-dimethoxyphenyl)-3-((2-methylindolin-1-yl)sulfonyl)benzamide] |
| 61% | O=C(Nc1ccc(N2CCOCC2)cc1)c1cccc(S(=O)(=O)Nc2ccc(Br)cc2)c1 [I-255, 3-(N-(4-bromophenyl)sulfamoyl)-N-(4-morpholinophenyl)benzamide] |
| 56% | O=C(Nc1ccc(F)cc1)c1cccc(S(=O)(=O)N2CCc3ccccc32)c1 [I-512, N-(4-fluorophenyl)-3-(indolin-1-ylsulfonyl)benzamide] |
| 29% | O=C(Nc1ccc(N2CCOCC2)cc1)c1cccc(S(=O)(=O)N2CCc3ccccc32)c1 [I-601, 3-(indolin-1-ylsulfonyl)-N-(4-morpholinophenyl)benzamide] |
| 57% | CC1Cc2ccccc2N1S(=O)(=O)c1cccc(C(=O)N2CCc3cccc(F)c32)c1 (centres unmarked) [I-494, (7-fluoroindolin-1-yl)(3-((2-methylindolin-1-yl)sulfonyl)phenyl)methanone] |
| 54% | COc1ccc(NC(=O)c2cccc(S(=O)(=O)N3CC(C)CC(C)C3)c2)c(S(=O)(=O)Nc2ccccc2Cl)c1 (centres unmarked) [I-822, N-(2-(N-(2-chlorophenyl)sulfamoyl)-4-methoxyphenyl)-3-((3,5-dimethylpiperidin-1-yl)sulfonyl)benzamide] |
| 48% | N#CCc1ccc(NC(=O)c2cccc(S(=O)(=O)Nc3ccc4c(c3)OCO4)c2)cc1 [I-274, 3-(N-(benzo[d][1,3]dioxol-5-yl)sulfamoyl)-N-(4-(cyanomethyl)phenyl)benzamide] |
| 47% | CC1Cc2ccccc2N1S(=O)(=O)c1cccc(C(=O)Nc2ccc3c(c2)OCCCO3)c1 (centres unmarked) [I-582, N-(3,4-dihydro-2H-benzo[b][1,4]dioxepin-7-yl)-3-((2-methylindolin-1-yl)sulfonyl)benzamide] |
| 59% | CN(c1ccccc1)S(=O)(=O)c1ccc(C(=O)N2CCc3ccccc32)cc1 [I-865, 4-(indoline-1-carbonyl)-N-methyl-N-phenylbenzenesulfonamide] |
| 74% | Cc1ccccc1NC(=O)c1cccc(S(=O)(=O)Nc2ccc3c(c2)OCO3)c1 [I-238, 3-(N-(benzo[d][1,3]dioxol-5-yl)sulfamoyl)-N-(o-tolyl)benzamide] |
| 71% | Cc1cccc(NC(=O)c2cccc(S(=O)(=O)N3CCc4ccccc43)c2)c1 [I-214, 3-(indolin-1-ylsulfonyl)-N-(m-tolyl)benzamide] |
| 51% | Cc1ccc(S(=O)(=O)N(C)c2ccc(C(=O)Nc3ccc4c(c3)OCCO4)cc2)cc1 [I-938, N-(2,3-dihydrobenzo[b][1,4]dioxin-6-yl)-4-((N,4-dimethylphenyl)sulfonamido)benzamide] |
| 53% | CN(C)S(=O)(=O)c1cccc(NC(=O)c2cccc(S(=O)(=O)N3CCc4ccccc43)c2)c1 [I-550, N-(3-(N,N-dimethylsulfamoyl)phenyl)-3-(indolin-1-ylsulfonyl)benzamide] |
| 59% | O=C(Nc1cccc(S(=O)(=O)Nc2ccc(Cl)cc2)c1)c1ccoc1 [I-712, N-(3-(N-(4-chlorophenyl)sulfamoyl)phenyl)furan-3-carboxamide] |
| 57% | COc1cccc(NC(=O)c2ccc(Cl)c(S(=O)(=O)N3CCc4ccccc43)c2)c1 [I-500, 4-chloro-3-(indolin-1-ylsulfonyl)-N-(3-methoxyphenyl)benzamide] |

The remaining lines, values behind:

| SMILES | % Inhibition of Apyrase |
| --- | --- |
| O=C(Nc1ccc(F)c([N+](=O)[O-])c1)c1ccc(S(=O)(=O)Nc2ccc(Cl)cc2)cc1 [I-203, 4-(N-(4-chlorophenyl)sulfamoyl)-N-(4-fluoro-3-nitrophenyl)benzamide] | 72% |
| Cc1ccc(S(=O)(=O)N(C)c2ccc(C(=O)Nc3cc([N+](=O)[O-])ccc3C)cc2)cc1 [I-925, 4-((N,4-dimethylphenyl)sulfonamido)-N-(2-methyl-5-nitrophenyl)benzamide] | 56% |
| O=C(Nc1ccc(F)cc1)c1ccccc1NS(=O)(=O)c1cccc(C(F)(F)F)c1 [I-374, N-(4-fluorophenyl)-2-((3-(trifluoromethyl)phenyl)sulfonamido) benzamide] | 48% |
| O=C(Nc1cccc(S(=O)(=O)Nc2ccc(Br)cc2)c1)c1ccsc1 [I-207, N-(3-(N-(4-bromophenyl)sulfamoyl)phenyl)thiophene-3-carboxamide] | 74% |
| COc1ccc(NC(=O)c2ccc(S(=O)(=O)Nc3ccc(F)cc3)cc2)cc1 [I-408, 4-(N-(4-fluorophenyl)sulfamoyl)-N-(4-methoxyphenyl)benzamide] | 30% |
| CCOc1ccc(NS(=O)(=O)c2ccc(C(=O)Nc3cccc(C#N)c3)cc2)cc1 [I-211, N-(3-cyanophenyl)-4-(N-(4-ethoxyphenyl)sulfamoyl)benzamide] | 76% |
| COc1ccc2c(c1)CCCN2C(=O)c1ccc(S(=O)(=O)Nc2ccccc2F)cc1 [I-883, N-(2-fluorophenyl)-4-(6-methoxy-1,2,3,4-tetrahydroquinoline-1-carbonyl)benzenesulfonamide] | 51% |
| O=C(Nc1ccccc1NS(=O)(=O)c1ccc(F)cc1)c1cccc(S(=O)(=O)C(F)(F)F)c1 [I-833, N-(2-((4-fluorophenyl)sulfonamido)phenyl)-3-((trifluoromethyl)sulfonyl)benzamide] | 58% |
| Cc1cccc(NS(=O)(=O)c2ccc(C(=O)Nc3cccc(C#N)c3)cc2)c1C [I-206, N-(3-cyanophenyl)-4-(N-(2,3-dimethylphenyl)sulfamoyl)benzamide] | 74% |
| COc1ccc(NS(=O)(=O)c2cccc(NC(=O)c3ccc(Cl)s3)c2)cc1 [I-749, 5-chloro-N-(3-(N-(4-methoxyphenyl)sulfamoyl)phenyl)thiophene-2-carboxamide] | 41% |
| COc1ccc([N+](=O)[O-])cc1NC(=O)c1cccc(S(=O)(=O)Nc2ccc(Cl)cc2)c1 [I-254, 3-(N-(4-chlorophenyl)sulfamoyl)-N-(2-methoxy-5-nitrophenyl)benzamide] | 61% |
| CCNC(=O)c1cccc(NC(=O)c2cccc(S(=O)(=O)Nc3cccc(C(F)(F)F)c3)c2)c1 [I-594, N-ethyl-3-(3-(N-(3-(trifluoromethyl)phenyl)sulfamoyl)benzamido) benzamide] | 36% |
| Cc1n[nH]c(C)c1CCC(=O)Nc1cccc(NC(=O)c2cccc(S(=O)(=O)Nc3ccc(Br)cc3)c2)c1 [I-1009, 3-(N-(4-bromophenyl)sulfamoyl)-N-(3-(3-(3,5-dimethyl-1H-pyrazol-4-yl)propanamido)phenyl)benzamide] | 26% |
| CN(c1ccccc1)S(=O)(=O)c1ccc(C(=O)N2CC(=O)Nc3ccccc32)cc1 [I-890, N-methyl-4-(3-oxo-1,2,3,4-tetrahydroquinoxaline-1-carbonyl)-N-phenylbenzenesulfonamide] | 32% |
| O=C(Nc1cnccn1)c1cccc(NS(=O)(=O)c2ccccc2)c1 [I-670, 3-(phenylsulfonamido)-N-(pyrazin-2-yl)benzamide] | 6% |
| CCOC(=O)c1c(NC(=O)c2cccc(S(=O)(=O)Nc3cccc(Cl)c3)c2)sc2c1CCCC2 [I-507, ethyl 2-(3-(N-(3-chlorophenyl)sulfamoyl)benzamido)-4,5,6,7-tetrahydrobenzo[b]thiophene-3-carboxylate] | 57% |
| O=C(Nc1cccc(S(=O)(=O)Nc2ccc(Br)cc2)c1)c1ccc([N+](=O)[O-])s1 [I-702, N-(3-(N-(4-bromophenyl)sulfamoyl)phenyl)-5-nitrothiophene-2-carboxamide] | 73% |
